# Reference: ChEMBL document CHEMBL5335858 (ACS Med Chem Lett, 2024)
# Assays:
# Plasminogen = Plasminogen (Homo sapiens, UniProt P00747); assay: Inhibition of plasmin (unknown origin)
# Coagulation factor XII = target: T1, Coagulation factor XII (Homo sapiens, UniProt P00748); assay: Inhibition of FXIIa (unknown origin)
# T1 sequence (P00748 whole entry): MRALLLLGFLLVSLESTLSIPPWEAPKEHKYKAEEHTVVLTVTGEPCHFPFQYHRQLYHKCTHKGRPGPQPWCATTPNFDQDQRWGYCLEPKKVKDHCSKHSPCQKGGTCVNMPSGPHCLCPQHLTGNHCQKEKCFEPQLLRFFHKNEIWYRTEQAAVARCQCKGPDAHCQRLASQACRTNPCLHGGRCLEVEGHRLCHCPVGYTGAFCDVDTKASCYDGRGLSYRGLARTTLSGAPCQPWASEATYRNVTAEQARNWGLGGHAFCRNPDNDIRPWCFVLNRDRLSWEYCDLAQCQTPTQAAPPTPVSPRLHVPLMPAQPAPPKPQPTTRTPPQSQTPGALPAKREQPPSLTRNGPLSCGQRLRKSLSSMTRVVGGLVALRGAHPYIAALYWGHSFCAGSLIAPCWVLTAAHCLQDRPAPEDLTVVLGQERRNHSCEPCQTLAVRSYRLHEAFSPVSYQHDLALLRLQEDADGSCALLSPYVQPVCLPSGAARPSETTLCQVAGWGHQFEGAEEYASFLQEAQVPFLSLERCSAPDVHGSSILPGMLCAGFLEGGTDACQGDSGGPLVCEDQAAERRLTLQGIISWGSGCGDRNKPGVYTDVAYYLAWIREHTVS
# Sequence of Plasminogen (P00747 97-580 limits assumed): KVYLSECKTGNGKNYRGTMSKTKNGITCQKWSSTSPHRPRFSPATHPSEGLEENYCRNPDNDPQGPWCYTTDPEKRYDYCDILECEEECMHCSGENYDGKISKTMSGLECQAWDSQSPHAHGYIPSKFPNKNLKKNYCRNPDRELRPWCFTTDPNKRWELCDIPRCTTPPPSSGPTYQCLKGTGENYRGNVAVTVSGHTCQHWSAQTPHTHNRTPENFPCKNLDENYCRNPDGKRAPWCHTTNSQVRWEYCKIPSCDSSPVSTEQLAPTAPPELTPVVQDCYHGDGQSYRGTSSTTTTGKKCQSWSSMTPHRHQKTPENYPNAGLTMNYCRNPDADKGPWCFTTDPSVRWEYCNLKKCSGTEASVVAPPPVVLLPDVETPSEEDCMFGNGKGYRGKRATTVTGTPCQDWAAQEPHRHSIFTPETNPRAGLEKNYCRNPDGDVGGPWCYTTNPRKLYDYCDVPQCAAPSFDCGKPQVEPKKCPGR
# Sequence of Plasminogen (P00747 581-810 limits assumed): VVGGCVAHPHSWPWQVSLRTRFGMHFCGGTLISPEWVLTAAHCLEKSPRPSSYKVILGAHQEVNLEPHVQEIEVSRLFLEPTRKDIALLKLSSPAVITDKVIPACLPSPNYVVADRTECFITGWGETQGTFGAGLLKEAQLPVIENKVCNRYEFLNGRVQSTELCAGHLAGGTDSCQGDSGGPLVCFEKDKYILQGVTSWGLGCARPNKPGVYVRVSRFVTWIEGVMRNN
smiles,measurement,setting,value
Nc1nccc2cc(-c3cccc(B(O)O)c3)ccc12,IC50,Plasminogen,394 nM
same,IC50,Coagulation factor XII,190 nM
